One data set has as its system VCAM-1. The following applies: previous work; cited from earlier work.
A further data set relates to LP9 mesothelial cells. Description: Viability of carboplatin-treated LP9 mesothelial cells. It is filed as cell-based, human. Conditions: increasing concentrations up to 1 μg/ml, 24 hours, data not shown.
The subject of data set [1] is VCAM-1 expression, SKOV3ip1 (platinum resistant) tumors. It is filed as in vivo, mouse. The following applies: SKOV3ip1 mice, single IP 25 mg/kg; 111In-tVCAM-4 omentum biodistribution; n=3.
For data set [2] the following is noted: patients; cited from earlier work.

We go through two compounds from publication PMC3992874 (Journal of nuclear medicine : official publication, Society …, 2013).

Consider “(βAKTLLPTPGGS(PEG5000))KKKDOTAβA-NH2 [tVCAM-4]”, for which, in the data set with VCAM-1, the “affinity for VCAM-1” value is “high affinity”.

Turning to `N.N.O=C([O-])C1(C(=O)[O-])CCC1.[Pt+2]` [carboplatin], the “effect on cell viability” value in the data set on LP9 mesothelial cells is given as “None of the concentrations tested altered”. In data set [1], the “VCAM-1 expression above baseline 2 days after treatment” value worked out at 50%. Also, the “injected dose excreted within 24 hours” value in data set [2] is reported as “up to 80%”.
